US12503452B2 (Curza Global, LLC, priority 2019, dated 2025)
Where a name gives a salt, the structure may show the parent alone. Read-outs that look alike come from different tables or passages of the source.

Legend:
[1] = test system: E. coli S30 extract (bacterial protein synthesis); assay: E. coli S30 extract coupled transcription-translation luciferase assay (inhibition of bacterial protein synthesis); format: biochemical; settings: read-out: S30 IC50 (μM/% inhib.)
How it was run: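 Luminescent read-out of luciferase made from pBESTluc DNA by E. coli S30 extract after 1 h at 37 °C with compound in an 8-point 2-fold series. Background came from no-DNA reactions. Percent inhibition was calculated against water-only controls.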

[2] = test system: P. aeruginosa (Pa); assay: Broth microdilution minimum inhibitory concentration (MIC); format: cell-based; settings: Pseudomonas aeruginosa, read-out: Pa MIC + bicarb
How it was run: (§1)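 Two-fold compound series, 8 points in triplicate; medium CAMHB ± NaHCO3 (6.25 or 25 mM final) or ± 0–50% heat-inactivated human serum; inoculum 5×10^4 CFU/well; growth-method 0.5 McFarland suspensions; modified CLSI M07-A9.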

[3] = test system: E. coli (Ec); assay: as above; format: cell-based; settings: Escherichia coli, read-out: E. coli + bicarb MIC
How it was run: as §1

[4] = test system: E. faecalis (Ef); assay: as above; format: cell-based; settings: Enterococcus faecalis, read-out: Ef + bicarb MIC
How it was run: as §1

[5] = test system: A. baumannii (Ab); assay: as above; format: cell-based; settings: Acinetobacter baumannii, read-out: Ab + bicarb MIC
How it was run: as §1

[6] = test system: S. aureus (Sa); assay: as above; format: cell-based; settings: Staphylococcus aureus, read-out: Sa + bicarb MIC
How it was run: as §1

[7] = target: Rabbit Reticulocyte Lysate (eukaryotic protein synthesis); assay: Rabbit reticulocyte lysate luciferase assay (inhibition of eukaryotic protein synthesis); format: biochemical; settings: read-out: Rabbit reticulocyte IC50 (μM/% inhib.)
How it was run: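 Compounds were tested in 8-point 2-fold dilution series for blocking luciferase synthesis in nuclease-treated rabbit reticulocyte lysate (30° C., 90 minutes). Luminescence read-out, corrected by no-RNA background, was expressed as % inhibition against water-only reactions.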

[8] = class by IC50 or % inhibition @ 1 μM
[9] = P. aeruginosa, growth medium supplemented with sodium bicarbonate
[10] = E. coli, growth medium supplemented with sodium bicarbonate
[11] = E. faecalis, growth medium supplemented with sodium bicarbonate
[12] = A. baumannii, growth medium supplemented with sodium bicarbonate
[13] = S. aureus, growth medium supplemented with sodium bicarbonate
[14] = P. aeruginosa, growth medium with sodium bicarbonate
[15] = E. coli, growth medium with sodium bicarbonate
[16] = E. faecalis, growth medium with sodium bicarbonate
[17] = A. baumannii, growth medium with sodium bicarbonate
[18] = S. aureus, growth medium with sodium bicarbonate

Structure (SMILES)	IC50 [1, 8] [µM]	IC50 [7, 8] [µM]	MIC [2, 9] [µg/mL]	MIC [3, 10] [µg/mL]	MIC [4, 11] [µg/mL]	MIC [5, 12] [µg/mL]	MIC [6, 13] [µg/mL]	further results
CC(C)(N)C(=O)N1CCN(C(=O)Nc2ccn(-c3ccc(CNC4CCC[C@@H](N)C4)cc3)c(=O)n2)CC1 (mixture of isomers) [Compound 320, hydrochloride salt]	< 0.5	> 1	–	–	–	–	–	MIC [2]: > 32 µg/mL; MIC [3]: < 8 µg/mL; MIC [4]: > 32 µg/mL; MIC [5]: > 32 µg/mL; MIC [6]: 8 to 32 µg/mL
CC(Cc1ccc(-n2ccc(NC(=O)N3CCN(C(=O)C(C)(C)N)CC3)nc2=O)cc1)NC[C@@H]1CCC[C@@H](N)C1 (mixture of isomers) [Compound 155]	> 1	> 1	> 32	< 8	> 32	> 32	8 to 32	–
CC(C)(N)C(=O)N1CCN(C(=O)Nc2ccn(-c3cccc(CCN4CC[C@H](CN)C4)c3)c(=O)n2)CC1 (stereo in doubt) [Compound 24]	< 0.5	> 1	> 32	8 to 32	> 32	> 32	8 to 32	–
C[C@@H]1CCN(CCc2ccc(-n3ccc(NC(=O)N4CCN(C(=O)[C@](C)(N)CO)CC4)nc3=O)cc2)CC[C@H]1N (stereo in doubt) [Compound 28]	< 0.5	> 1	> 32	< 8	< 8	> 32	< 8	–
CC(C)(N)C(=O)N1CCN(C(=O)Nc2ccn(-c3ccc(CCN[C@H]4CC[C@@H](CN)C4)cc3)c(=O)n2)CC1 (stereo in doubt) [Compound 177]	> 1	> 1	–	–	–	–	–	MIC [2, 14]: > 32 µg/mL; MIC [3, 15]: < 8 µg/mL; MIC [4, 16]: > 32 µg/mL; MIC [5, 17]: > 32 µg/mL; MIC [6, 18]: < 8 µg/mL
CN(CCc1ccc(-n2ccc(NC(=O)N3CCN(C(=O)C(C)(C)N)CC3)nc2=O)cc1)[C@H]1CC[C@@H](CN)C1 (stereo in doubt) [Compound 178]	> 1	> 1	–	–	–	–	–	MIC [2, 14]: > 32 µg/mL; MIC [3, 15]: < 8 µg/mL; MIC [4, 16]: > 32 µg/mL; MIC [5, 17]: > 32 µg/mL; MIC [6, 18]: 8 to 32 µg/mL
CC[C@@H]1CN(Cc2ccc(-n3ccc(NC(=O)N4CCN(C(=O)C(C)(C)N)CC4)nc3=O)cc2)CC[C@H]1N (stereo in doubt) [Compound 213]	< 0.5	> 1	–	–	–	–	–	MIC [2, 14]: > 32 µg/mL; MIC [3, 15]: < 8 µg/mL; MIC [4, 16]: < 8 µg/mL; MIC [5, 17]: > 32 µg/mL; MIC [6, 18]: < 8 µg/mL
C[C@H]1CN(Cc2ccc(-n3ccc(NC(=O)N4CCN(C(=O)C(C)(C)N)CC4)nc3=O)cc2)CC[C@H]1N (stereo in doubt) [Compound 297, hydrochloride salt]	0.5 to 1	> 1	–	–	–	–	–	MIC [2]: > 32 µg/mL; MIC [3]: < 8 µg/mL; MIC [4]: 8 to 32 µg/mL; MIC [6]: < 8 µg/mL
CC(C)(N)C(=O)N1CCN(C(=O)Nc2ccn(-c3ccc(CCN4CCCC(N)CC4)cc3)c(=O)n2)CC1 (stereo not shown) [Compound 21]	< 0.5	> 1	8 to 32	< 8	< 8	> 32	< 8	–
CC(N)C1CCCN(CCc2ccc(-n3ccc(NC(=O)N4CCN(C(=O)C(C)(C)N)CC4)nc3=O)cc2)C1 (stereo not shown) [Compound 22]	< 0.5	> 1	> 32	< 8	–	–	< 8	–
CCC(N)C1CCCN(CCc2ccc(-n3ccc(NC(=O)N4CCN(C(=O)C(C)(C)N)CC4)nc3=O)cc2)C1 (stereo not shown) [Compound 23]	> 1	> 1	> 32	< 8	> 32	> 32	8 to 32	–
CC(C)(N)C(=O)N1CCN(C(=O)Nc2ccn(-c3ccc(CCN4CCC[C@@H](CN)C4)cc3)c(=O)n2)CC1 [Compound 25]	0.5 to 1	> 1	> 32	< 8	> 32	> 32	< 8	–
CC(C)(N)C(=O)N1CCN(C(=O)Nc2ccn(-c3ccc(CCN4CCC[C@H](CN)C4)cc3)c(=O)n2)CC1 [Compound 26]	< 0.5	> 1	> 32	< 8	8 to 32	> 32	< 8	–
C[C@@H]1CCN(CCc2ccc(-n3ccc(NC(=O)N4CCN(C(=O)C(C)(C)N)CC4)nc3=O)cc2)CC[C@H]1N [Compound 27]	< 0.5	> 1	8 to 32	< 8	< 8	> 32	< 8	–
CC(C)(N)C(=O)N1C2COCC1CN(C(=O)Nc1ccn(-c3ccc(CN4CCC(N)CC4)cc3)c(=O)n1)C2 [Compound 68]	0.5 to 1	> 1	> 32	< 8	–	–	> 32	–
CC(C)(N)C(=O)N1CC2COCC(C1)N2C(=O)Nc1ccn(-c2ccc(CN3CCC(N)CC3)cc2)c(=O)n1 [Compound 85]	> 1	> 1	> 32	< 8	–	–	> 32	–
CNC(C)(C)C(=O)N1CCN(C(=O)Nc2ccn(-c3ccc(CN4CCC(N)CC4)cc3)c(=O)n2)CC1 [Compound 96]	> 1	> 1	> 32	< 8	–	–	< 8	–
C[C@](N)(CO)C(=O)N1CCN(C(=O)Nc2ccn(-c3ccc(CN4CCC(N)CC4)c(Cl)c3)c(=O)n2)CC1 [Compound 98]	< 0.5	> 1	> 32	< 8	–	–	< 8	–
CC(N)C1CCCN(Cc2ccc(-n3ccc(NC(=O)N4CCN(C(=O)C(C)(C)N)CC4)nc3=O)cc2)C1 (stereo not shown) [Compound 109]	< 0.5	> 1	> 32	< 8	–	–	< 8	–
CC1CN(Cc2ccc(-n3ccc(NC(=O)N4CCN(C(=O)[C@@](C)(N)CO)CC4)nc3=O)cc2)CCC1N (stereo partly shown) [Compound 223]	0.5 to 1	> 1	–	–	–	–	–	MIC [2, 14]: > 32 µg/mL; MIC [3, 15]: < 8 µg/mL; MIC [4, 16]: < 8 µg/mL; MIC [5, 17]: > 32 µg/mL
C[C@](N)(CO)C(=O)N1CCN(C(=O)Nc2ccn(-c3ccc(CCN4CCC(NC(=N)N)CC4)cc3)c(=O)n2)CC1 [Compound 349, hydrochloride salt]	–	–	–	–	–	–	–	IC50 ([1]; % inhibition @ 1 μM): < 0.5 µM; MIC [3]: < 8 µg/mL; MIC [6]: 8 to 32 µg/mL; IC50 ([7]; % inhibition @ 1 μM): 0.5 to 1 µM
